Experimental data taken from US20130029983A1, “AMINOTHIENOPYRIDAZINE INHIBITORS OF TAU ASSEMBLY” (priority 2009, published 2013).
Read-outs that look alike come from different tables or passages of the source.

Key:
Type in all cases: biochemical
[1] = molecular target: T1, Aβ(1-42) (Homo sapiens, UniProt P05067); assay: Aβ(1-42) fibrillization assay (ThT); settings: Table 3, highest tested concentration (80 μM); for inhibition at 80 µM: read-out: Aβ42 ThT Assay % Inhib.
T1 construct: Synthetic Aβ(1-42) peptide (rPeptide); purchased rPeptide
T1 sequence (P05067 672-713 limits assumed): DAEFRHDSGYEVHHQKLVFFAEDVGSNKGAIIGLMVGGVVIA

[2] = molecular target: T2, K18PL tau (Homo sapiens, UniProt P10636, P618L); assay: Heparin-induced K18PL tau fibrillization assay monitored by ThT fluorescence; settings: for inhibition at 80 µM / Tau ThT Assay % Inhib.: highest tested concentration (80 μM); for inhibition at 80 µM: read-out: Tau ThT Assay % Inhib.; for IC50 / Tau ThT Assay Log IC50: logarithm of IC50, K18PL tau ThT fluorescence inhibition; for IC50: read-out: Tau ThT Assay Log IC50 (converted)
T2 construct: (K18PL; amino acids 244-369); made in house
T2 sequence (P10636 561-686 P618L): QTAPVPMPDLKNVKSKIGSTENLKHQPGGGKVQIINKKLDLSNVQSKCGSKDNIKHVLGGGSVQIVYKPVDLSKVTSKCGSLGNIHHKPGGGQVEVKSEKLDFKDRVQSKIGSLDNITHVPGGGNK
Method: Tau fibril formation reactions were performed essentially as described (Crowe, A., Ballatore, C., Hyde, E., Trojanowski, J. Q., and Lee, V. M. Y. (2007) Biochemical and Biophysical Research Communications 358, 1-6). K18PL (2 μl of a 30 μM stock that also contained 0.24 μM Alexa Red-labeled K18PL) was dispensed into black 1536-well plates (Grenier) using a solenoid-based dispenser. Following transfer of 23 nL of test compound or DMSO vehicle by a pin tool from compound library plates, 2 μl/well of 40 μM heparin in reagent buffer was dispensed and the plate was centrifuged for 15 s at 1000 rpm in a table-top centrifuge. The fibrillization reaction proceeded for 6 hours at 37° C. in a humidified incubator (Kalypsys).
K18PL fibril formation was quantified with a ThT assay as previously described (Crowe, A., Ballatore, C., Hyde, E., Trojanowski, J. Q., and Lee, V. M. Y. (2007) Biochemical and Biophysical Research Communications 358, 1-6). Briefly, 1 μl/well of 62.5 μM ThT (Sigma) in 100 mM glycine, pH 8.5 (12.5 μM final concentration) was dispensed into 1536-well plates after completion of the fibrillization reaction and incubated at room temperature for 1 hour. Plates were read on an Envision fluorescence plate reader with an excitation of 450 nm and an emission setting of 510 nm.
Compound effects on tau assembly were determined for the ThT and FP assays using the formula 1−(Fcompound− FDMSO)/( Fcontrol− FDMSO), where Fcontrol denotes the median plate fluorescence values (ThT assay) or mP values (FP assay) of the non-fibrillizing K18 KD control wells, FDMSO denotes the median value of the DMSO control wells, and Fcompound denotes the compound well values. The resulting values were multiplied by 100 to obtain the percent inhibition of tau fibril formation.
(§1) The solubility of test compounds in the sodium acetate buffer used for subsequent fibrillization reactions was determined by turbidimetric measurements. Compounds were then evaluated in a heparin-induced tau assembly assay, in which the fibrillization of the truncated K18 tau fragment (comprised of four MT-binding repeats) bearing the P301L mutation (K18PL) found in FTDP-17, was monitored by thioflavine-T (ThT) binding and fluorescence (FIG. 3A). (Crowe, A.; et al., Identification of aminothienopyridazine inhibitors of tau assembly by quantitative high-throughput screening. Biochemistry 2009, 48, 7732-45.) The inhibitory activity of test compounds was then confirmed with an orthogonal sedimentation assay in which compound-treated fibrillizing mixtures were centrifuged and quantitation of K18PL tau in the soluble and insoluble fraction was performed by densitometric analyses of SDS-PAGE (FIG. 3B). […] Thus, the tau fibrillization assay was repeated in which both DMSO- and compound-treated mixtures were initially centrifuged for 30 min. prior to incubation (i.e., at time zero of the fibrillization reaction) to remove any pelletable material.

[3] = molecular target: T2, K18PL tau; assay: K18PL tau centrifugation (sedimentation) assay, SDS-PAGE densitometry; settings: K18PL tau centrifugation assay
Method: The determination of compound-induced effects on the amount of tau that remains soluble upon centrifugation, and EM visualization of tau species following incubation with test compounds, were as previously described (Crowe, A., Ballatore, C., Hyde, E., Trojanowski, J. Q., and Lee, V. M. Y. (2007) Biochemical and Biophysical Research Communications 358, 1-6).
as §1

[4] = Table 3, NC = not calculated due to insufficient activity

SMILES | inhibition at 80 µM [1] | inhibition at 80 µM ([2]; Table 3) | Tau Cent. Assay % Soluble ([3]; Table 3) | inhibition at 80 µM ([2]; Table 4) | Tau Cent. Assay % Soluble ([3]; Table 4) | further results
CCOC(=O)c1nn(-c2ccc(C)cc2)c(=O)c2c(N)scc12 [Compound 5h] | 12% | 51% | 35% |  |  | IC50 [2, 4]: 126 µM
CCOC(=O)c1nn(-c2ccc(Cl)c(Cl)c2)c(=O)c2c(N)scc12 [Compound 5g] | 6% | 29% | 12% |  |  | 
CCOC(=O)c1nn(-c2ccc(C)c(C)c2)c(=O)c2c(N)scc12 [Compound 5c] | 7% | 48% | 28% |  |  | 
NC(=O)c1nn(-c2ccccc2)c(=O)c2c(N)scc12 [Compound 8c] | 16% | 93% | 89% |  |  | IC50 [2, 4]: 6.31 µM
COc1ccc(-n2nc(C(=O)O)c3csc(N)c3c2=O)cc1 [Compound 6b] | 1% | 94% | 95% |  |  | IC50 [2, 4]: 2.51 µM
CCOC(=O)c1nn(-c2ccccc2)c(=O)c2c(NC(=O)c3ccccc3)scc12 [Compound 9c] | -7% | 8% | 2% |  |  | 
Nc1nn(-c2ccccc2)c(=O)c2c(N)scc12 [Compound 14] | 21% | 92% | 86% |  |  | IC50 [2, 4]: 6.31 µM
Nc1scc2c(C(=O)N3CCOCC3)nn(-c3ccccc3)c(=O)c12 [Compound 8b] | 0% | 81% | 89% |  |  | IC50 [2, 4]: 15.8 µM
CCOC(=O)c1nn(-c2ccccc2)c(=O)c2c(N)sc(C)c12 [Compound 5f] | 21% | 35% | 4% |  |  | 
CCOC(=O)c1nn(-c2ccccc2Cl)c(=O)c2c(N)scc12 [CNDR-51425, Ethyl 5-amino-3-(2-chlorophenyl)-4-oxo-3,4-dihydrothieno[3,4-d]pyridazine-1-carboxylate] |  |  |  | 87% | 61% | IC50 ([2]; Table 4): 5.01 µM
CC(=O)Nc1sc(C)c2cnn(-c3ccccc3)c(=O)c12 [Compound 16] | -11% | 11% | 5% |  |  | 
CC(C)NC(=O)c1nn(-c2cccc(Cl)c2)c(=O)c2c(N)scc12 [CNDR-51391, 5-Amino-3-(3-chlorophenyl)-N-isopropyl-4-oxo-3,4-dihydrothieno[3,4-d]pyridazine-1-carboxamide] |  |  |  | 83% | 62% | IC50 ([2]; Table 4): 1.26 µM
NNC(=O)c1nn(-c2ccc(Cl)cc2)c(=O)c2c(N)scc12 [CNDR-51378, 5-Amino-3-(4-chlorophenyl)-4-oxo-3,4-dihydrothieno[3,4-d]pyridazine-1-carbohydrazide] |  |  |  | 93% | 77% | IC50 ([2]; Table 4): 3.16 µM
Nc1scc2c(C(=O)O)nn(-c3ccccc3)c(=O)c12 [Compound 6a] | 20% | 92% | 84% |  |  | IC50 [2, 4]: 7.94 µM
CCOC(=O)c1nn(-c2ccc(OC(F)(F)F)cc2)c(=O)c2c(N)scc12 [CNDR-51369, Ethyl 5-amino-4-oxo-3-(4-(trifluoromethoxy)phenyl)-3,4-dihydrothieno[3,4-d]pyridazine-1-carboxylate] |  |  |  | 41% | 29% | IC50 ([2]; Table 4): 2 µM
Nc1scc2c(-c3ccccc3)nn(-c3ccc(Cl)cc3)c(=O)c12 [CNDR-51405] |  |  |  |  | 44% | Tau ThT Assay % Inhib. ([2]; Table 4): 85%; Tau ThT Assay Log IC50 ([2]; Table 4): −6.0
CCOC(=O)c1nn(-c2ccccc2)c(=O)c2c(N)scc12 [Compound 5a] |  |  | 55% |  |  | Aβ42 ThT Assay % Inhib. [1]: −1%; Tau ThT Assay % Inhib. ([2]; Table 3): 80%; Tau ThT Assay Log IC50 [2, 4]: −5.2
Nc1scc2c(C(=O)NC3CC3)nn(-c3ccc(F)cc3)c(=O)c12 [CNDR-51397, 5-Amino-N-cyclopropyl-3-(4-fluorophenyl)-4-oxo-3,4-dihydrothieno[3,4-d]pyridazine-1-carboxamide] |  |  |  | 88% | 78% | Tau ThT Assay Log IC50 ([2]; Table 4): −5.6
CCOC(=O)c1nn(-c2ccc(F)cc2)c(=O)c2c(N)scc12 [CNDR-51394, Ethyl 5-amino-3-(4-fluorophenyl)-4-oxo-3,4-dihydrothieno[3,4-d]pyridazine-1-carboxylate] |  |  |  | 77% | 63% | Tau ThT Assay Log IC50 ([2]; Table 4): −6.0
CC(C)NC(=O)c1nn(-c2ccc(F)cc2)c(=O)c2c(N)scc12 [CNDR-51396, 5-Amino-3-(4-fluorophenyl)-N-isopropyl-4-oxo-3,4-dihydrothieno[3,4-d]pyridazine-1-carboxamide] |  |  |  | 89% | 77% | Tau ThT Assay Log IC50 ([2]; Table 4): −5.8
CCOC(=O)c1nn(-c2ccc(C(C)C)cc2)c(=O)c2c(N)scc12 [CNDR-51347] |  |  |  |  | 17% | Tau ThT Assay % Inhib. ([2]; Table 4): 8%
CCOC(=O)c1nn(-c2ccc(I)cc2)c(=O)c2c(N)scc12 [CNDR-51404, Ethyl 5-amino-3-(4-iodophenyl)-4-oxo-3,4-dihydrothieno[3,4-d]pyridazine-1-carboxylate] |  |  |  | 89% | 63% | IC50 ([2]; Table 4): 2.51 µM
Nc1scc2c(C(=O)O)nn(-c3ccc(OC(F)(F)F)cc3)c(=O)c12 [CNDR-51370, 5-Amino-4-oxo-3-(4-(trifluoromethoxy)phenyl)-3,4-dihydrothieno[3,4-d]pyridazine-1-carboxylic acid] |  |  |  | 88% | 65% | IC50 ([2]; Table 4): 6.31 µM
CCOC(=O)c1nn(-c2ccc(Cl)cc2)c(=O)c2c(N)sc(Br)c12 [CNDR-51411, Ethyl 5-amino-7-bromo-3-(4-chlorophenyl)-4-oxo-3,4-dihydrothieno[3,4-d]pyridazine-1-carboxylate] |  |  |  | 92% | 62% | Tau ThT Assay Log IC50 ([2]; Table 4): −5.4
Cc1nn(-c2ccc(Cl)cc2)c(=O)c2c(N)scc12 [CNDR-51400] |  |  |  |  | 90% | Tau ThT Assay % Inhib. ([2]; Table 4): 87%; Tau ThT Assay Log IC50 ([2]; Table 4): −5.9
